# Assay results: paper PMC8003416, “Modulation of Human Phenylalanine Hydroxylase by 3-Hydroxyquinolin-2(1H)-One Derivatives” (Biomolecules, 2021)
# Tests used:
# [1] = target: T1, human phenylalanine hydroxylase (hPAH) (Homo sapiens, UniProt P00439); assay: Differential scanning fluorimetry (thermal denaturation); assay type: binding; details: for ΔTm1 (regulatory domain) / ΔTm2 (catalytic domain): 100 μM compound vs 1% DMSO control, * S.D. < 0.01
# T1 construct: Recombinant full-length wild-type (WT) hPAH was expressed in E. coli Top10 cells in fusion with a hexa-histidyl peptide; made in house; host or cells: E. coli Top10
# T1 sequence (P00439 1-452): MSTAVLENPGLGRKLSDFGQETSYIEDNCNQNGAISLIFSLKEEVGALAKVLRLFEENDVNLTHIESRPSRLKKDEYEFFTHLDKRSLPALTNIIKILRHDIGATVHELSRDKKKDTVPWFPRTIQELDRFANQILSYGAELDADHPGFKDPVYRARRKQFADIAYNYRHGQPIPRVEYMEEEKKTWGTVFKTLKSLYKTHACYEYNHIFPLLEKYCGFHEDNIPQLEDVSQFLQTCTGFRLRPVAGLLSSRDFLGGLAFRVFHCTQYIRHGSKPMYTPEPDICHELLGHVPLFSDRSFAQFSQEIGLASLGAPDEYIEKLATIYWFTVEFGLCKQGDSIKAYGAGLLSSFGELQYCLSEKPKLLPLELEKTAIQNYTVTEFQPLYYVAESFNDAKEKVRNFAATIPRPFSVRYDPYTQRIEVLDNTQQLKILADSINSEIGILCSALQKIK
# Procedure: Thermal denaturation profiles of recombinant hPAH were obtained by differential scanning fluorimetry (DSF) in a C1000 Touch thermal cycler equipped with a CFX96 optical reaction module (Bio-Rad; Hercules, CA, USA) as previously described. Briefly, DSF assays (n = 3) were performed using 100 μg/mL hPAH tetramers (final concentration of 0.45 μM of tetramer), SYPRO Orange (5000-fold commercially available stock solution; Invitrogen; Carlsbad, CA, USA) at a 2.5-x final concentration and ramping the temperature from 20 to 90 °C, at 1 °C/min. Fluorescence data were acquired using the FRET channel. Data were processed using CFX Manager Software V3.0 (Bio-Rad) and the GraphPad Prism. Temperature scan curves were fitted to a biphasic dose–response function and the Tm values were obtained from the midpoint of the first (Tm1) and second transitions (Tm2) corresponding, respectively, to the thermal denaturation of the regulatory and catalytic domains. The Tm values in the presence of 3HQ were compared to those obtained in the presence of 1% DMSO (vehicle control) and a change in the Tm was considered significant when the |ΔTm| ≥ 2 °C [22].
# [2] = target: T1, human phenylalanine hydroxylase (hPAH); assay: Surface plasmon resonance, immobilized hPAH; assay type: binding; details: for Kd / KD (steady-state affinity constant): 25 °C, 3HQs up to 200 μM, no saturation (lower limits); for Kd: read-out: KD (steady-state affinity constant)
# Procedure: The affinity of hPAH for 3HQs was evaluated by surface plasmon resonance (SPR) using a Biacore 4000 (GE Healthcare) instrument. All assays were carried out at 25 °C. Optimization of hPAH immobilization on a carboxymethylated dextran (CM5) matrix of the sensor chip was initiated by performing a pH scouting, using as buffers 10 mM sodium acetate (pH 5.0, 5.2, 5.5 and 5.8), 10 mM Bis-Tris (pH 6.0, 6.2 and 6.5), and 10 mM sodium phosphate (pH 7.0). hPAH was diluted to 10 µg/mL in the best immobilization buffer (10 mM sodium acetate pH 5.5) and immobilized onto the CM5 sensor chip using the standard amine coupling procedure. The HBS-N buffer, consisting of 10 mM HEPES pH 7.4 and 150 mM NaCl, was used as background buffer. Prior to immobilization, the carboxymethylated surface of the chip was activated with a 1:1 ratio of 400 mM 1-ethyl-3-(3-dimethylaminopropyl)-carbodiimide and 100 mM N-hydroxysuccinimide for 10 min. The hPAH was coupled to the surface with a 1 to 2 min injection time at a flow rate of 10 μL/min in order to reach 2000 to 5000 RU. The remaining activated carboxymethylated groups were blocked with a 7 min injection of 1 M ethanolamine pH 8.5.
# The 3HQs were directly diluted in running buffer (10 mM HEPES, 150 mM NaCl, 5 mM MgCl2, 0.1 mM EDTA, 0.05% (v/v) Tween-20, 1 mM DTT, pH 7.2, and 2% DMSO) and injected at ten different concentrations using two-fold dilutions series, from 200 µM to ≈ 0.4 μM. The interaction between hPAH and L-Phe in the ≈ 2–1000 μM range was also analyzed, for comparison with literature values. Moreover, L-Phe (at 1 mM) was used as a positive control to collect information on surface integrity and activity throughout the experiment. For competition experiments, 1 mM L-Phe was added to the running buffer. All sensorgrams were processed by first subtracting the binding response recorded from the control surface (reference spot), followed by subtracting an average of the buffer blank injections from the reaction spot. Interactions were assessed from the obtained plots of steady-state SPR response levels against 3HQs concentration, employing the provided Biacore 4000 evaluation software.
# [3] = test system: trypsin; assay: Trypsin activity control with Z-Gly-Gly-Arg-AMC; assay type: biochemical; details: 100 μM compound; for relative (residual) trypsin activity: 1% DMSO control = 100%; for Trypsin Abs/min: control 512 ± 11
# Procedure: To rule out compounds that inhibit/inactivate trypsin, changes in the cleavage rate of N-(Benzyloxy)carbonyl-glycylglycylarginyl-7-amido-4-methylcoumarin (Z–Gly–Gly–Arg–AMC; Bachem, Bubendorf, Switzerland), a synthetic substrate of trypsin, were monitored by fluorimetric measurements in a microplate reader (FLUOstar Omega; BMGLabtech, Ortenberg, Germany). The assays (n = 3) were performed in a 96-well plate, in SEC buffer and in a final volume of 200 μL containing 1.5 μg/mL of trypsin, 50 μM of Z–Gly–Gly–Arg–AMC and 100 μM of 3HQs derivatives. Fluorescence was measured in real-time, with λexc 360 nm and λem 460 nm, during 30 min at 25 °C. Controls were performed using substrate alone with 1% DMSO (negative control) and trypsin with no compounds and 1% DMSO (positive control).
# [4] = 100 μM compound in 1% DMSO, control 43.4 ± 0.6
# [5] = 100 μM compound in 1% DMSO, control 53.5 ± 0.4
SMILES,"Tm1 (regulatory domain) [1, 4] [°C]","Tm2 (catalytic domain) [1, 5] [°C]",ΔTm1 (regulatory domain) [1],ΔTm2 (catalytic domain) [1],ΔRU reduction in the presence of L-Phe ([2]; 1 mM L-Phe in running buffer) [%],Kd [2] [µM],relative (residual) trypsin activity [3] [%],Trypsin Abs/min [3] [Abs/min],KD (steady-state affinity constant) [2],"Tm1 (regulatory domain) ([1]; 1 mM L-Phe, 1% DMSO) [°C]","Tm2 (catalytic domain) ([1]; 1 mM L-Phe, 1% DMSO) [°C]"
CCOC(=O)[C@H](Cc1ccccc1)NC(=O)c1c(O)c(=O)[nH]c2ccc(OC(F)(F)F)cc12 [Compound 3],51.7 ± 0.4,53.6 ± 0.2,+8.3 ± 0.06 °C,+0.1 ± 0.01 °C,> 50,≥ 121,79,403 ± 12,–,–,–
O=C(NCCc1ccccc1)c1c(O)c(=O)[nH]c2ccc(OC(F)(F)F)cc12 [Compound 8],43.3 ± 0.1,52.2 ± 0.3,–,-1.3 ± 0.01 °C,–,≥ 200,62,319 ± 7,–,–,–
COC(=O)CC[C@H](NC(=O)c1c(O)c(=O)[nH]c2ccc(OC(F)(F)F)cc12)C(=O)OC [Compound 9],43.5 ± 0.1,53.0 ± 0.1,+0.2 ± 0.01 °C,-0.5 ± 0.01 °C,–,–,71,362 ± 9,at least mM affinity,–,–
COC(=O)CNC(=O)c1c(O)c(=O)[nH]c2ccc(OC(F)(F)F)cc12 [Compound 11],47.4 ± 0.1,53.6 ± 0.2,+4.0 ± 0.01 °C,–,–,–,92,470 ± 11,at least mM affinity,–,–
"N[C@@H](Cc1ccccc1)C(=O)O [L-Phe, L-phenylalanine, reference compound]",–,–,–,–,–,47 ± 8,–,–,–,51.0 ± 0.2,58.4 ± 0.04
